Measurements reported in the supplement of paper PMC13380429.

Legend:
Conditions in all cases: 72 h
Caco-2 [1] = test: cell viability relative to DMSO; higher = less toxic
Calu-3 [2] = test: as above
HepG2 [3] = test: as above
U2OS [4] = test: as above
Vero E6 [5] = test: as above
Caco-2 [6] = test: relative viability EC50 (midpoint between 100% and the lowest measured viability); higher = less toxic
Calu-3 [7] = test: as above
HepG2 [8] = test: as above
U2OS [9] = test: as above
Vero E6 [10] = test: as above
Caco-2 [11] = test: drug sensitivity score (DSS) for viability; higher = more toxic; extreme values may be limits of the assay
Calu-3 [12] = test: as above
HepG2 [13] = test: as above
U2OS [14] = test: as above
Vero E6 [15] = test: as above

Structure (SMILES) | cell viability (Caco-2 [1]; 1 nM) [%] | cell viability (Caco-2 [1]; 10 nM) [%] | cell viability (Caco-2 [1]; 100 nM) [%] | cell viability (Caco-2 [1]; 1000 nM) [%] | cell viability (Caco-2 [1]; 10000 nM) [%] | cell viability (Calu-3 [2]; 1 nM) [%] | cell viability (Calu-3 [2]; 10 nM) [%] | cell viability (Calu-3 [2]; 100 nM) [%] | cell viability (Calu-3 [2]; 1000 nM) [%] | cell viability (Calu-3 [2]; 10000 nM) [%] | cell viability (HepG2 [3]; 1 nM) [%] | cell viability (HepG2 [3]; 10 nM) [%] | cell viability (HepG2 [3]; 100 nM) [%] | cell viability (HepG2 [3]; 1000 nM) [%] | cell viability (HepG2 [3]; 10000 nM) [%] | cell viability (U2OS [4]; 1 nM) [%] | cell viability (U2OS [4]; 10 nM) [%] | cell viability (U2OS [4]; 100 nM) [%] | cell viability (U2OS [4]; 1000 nM) [%] | cell viability (U2OS [4]; 10000 nM) [%] | cell viability (Vero E6 [5]; 1 nM) [%] | cell viability (Vero E6 [5]; 10 nM) [%] | cell viability (Vero E6 [5]; 100 nM) [%] | cell viability (Vero E6 [5]; 1000 nM) [%] | cell viability (Vero E6 [5]; 10000 nM) [%] | relative viability EC50 (Caco-2 [6]) [µM] | relative viability EC50 (Calu-3 [7]) [µM] | relative viability EC50 (HepG2 [8]) [µM] | relative viability EC50 (U2OS [9]) [µM] | relative viability EC50 (Vero E6 [10]) [µM] | drug sensitivity score (Caco-2 [11]) | drug sensitivity score (Calu-3 [12]) | drug sensitivity score (HepG2 [13]) | drug sensitivity score (U2OS [14]) | drug sensitivity score (Vero E6 [15])
CNC(=N)NCCC[C@H](N)C(=O)O [targinine] | 98.1 | 98 | 101 | 96.8 | 96 | 96.7 | 96.9 | 96.8 | 111 | 99.2 | 94.1 | 103 | 96.9 | 98.6 | 96.3 | 105 | 96.9 | 101 | 101 | 102 | 96.3 | 98.1 | 95.9 | 99.6 | 81.3 | > 10 | > 10 | > 10 | > 10 | > 10 | 0 | 0 | 0 | 0 | 0.5
CCOC(=O)Nc1ccc2c(c1)N(C(=O)CN(C)C)c1ccccc1CC2 [tiracizine] | 106 | 105 | 105 | 98.9 | 100 | 107 | 103 | 87 | 85 | 106 | 106 | 95.4 | 111 | 87.6 | 102 | 99.9 | 104 | 96.5 | 101 | 99.7 | 99.8 | 99.2 | 97.3 | 97.9 | 97.8 | > 10 | > 10 | > 10 | > 10 | > 10 | 0 | 0 | 0 | 0 | 0
CCn1c(=O)n(C2=C(CO)CN(CC3CCCCCCC3)CC2)c2ccccc21 [trap-101] | 102 | 89.9 | 96.7 | 93.6 | 83.5 | 99.6 | 106 | 94.5 | 104 | 92.6 | 97.8 | 96.7 | 91.5 | 96.5 | 98 | 98.2 | 101 | 97.4 | 98.8 | 93.8 | 98 | 96.8 | 95.6 | 96.3 | 98.9 | > 10 | > 10 | > 10 | > 10 | > 10 | 0.3 | 0 | 0 | 0 | 0
Oc1cc(Cl)ccc1Oc1ccc(Cl)cc1Cl [triclosan] | 105 | 102 | 94.5 | 95.6 | 126 | 97.7 | 92.3 | 106 | 101 | 107 | 105 | 99.3 | 102 | 93.8 | 113 | 98.7 | 96.5 | 98.3 | 97.9 | 99.3 | 97 | 104 | 106 | 112 | 95.3 | > 10 | > 10 | > 10 | > 10 | > 10 | 0 | 0 | 0 | 0 | 0
COc1cc(C(=O)N2CCOCC2)cc(OC)c1OC [trimetozine] | 95.4 | 105 | 86.4 | 108 | 96.6 | 98.9 | 94.8 | 101 | 92.1 | 102 | 93.8 | 92.9 | 102 | 95.3 | 98.8 | 95.8 | 98.3 | 96.8 | 99.9 | 96.6 | 106 | 107 | 108 | 94.8 | 99.9 | > 10 | > 10 | > 10 | > 10 | > 10 | 0 | 0 | 0 | 0 | 0
CN(C)CCN1C(=O)c2cccc3cc(NC(N)=O)cc(c23)C1=O [unbs-5162] | 96.5 | 99.3 | 93.5 | 104 | 96 | 100 | 105 | 95.9 | 88.6 | 78.4 | 100 | 101 | 93.7 | 86.5 | 42.2 | 104 | 99.7 | 96.4 | 101 | 88 | 108 | 101 | 107 | 95.1 | 90.8 | > 10 | > 10 | 1.61 | > 10 | > 10 | 0 | 1.5 | 5.3 | 0 | 0
CC(=O)C1=C(O)C=C2Oc3c(C(C)=O)c(O)c(C)c(O)c3C2(C)C1=O (stereo not drawn) [usniacin-(+)] | 104 | 101 | 91.1 | 95.6 | 108 | 107 | 99.4 | 95.2 | 113 | 96.4 | 111 | 97.1 | 102 | 110 | 94 | 98.9 | 75.3 | 95.8 | 83.5 | 95.5 | 101 | 95.4 | 100 | 98.9 | 101 | > 10 | > 10 | > 10 | > 10 | > 10 | 0 | 0 | 0 | 0 | 0
COc1cc(C=O)ccc1O [vanillin] | 92.8 | 90 | 96 | 104 | 96.6 | 97.5 | 107 | 109 | 99.8 | 105 | 99.9 | 91.9 | 102 | 115 | 97.4 | 96.1 | 104 | 95.1 | 104 | 99.1 | 92 | 91.5 | 89.7 | 89 | 105 | > 10 | > 10 | > 10 | > 10 | > 10 | 0 | 0 | 0 | 0 | 0
COc1ccc(CCO[C@@H]2CCCC[C@H]2N2CC[C@@H](O)C2)cc1OC [vernakalant] | 101 | 91.2 | 93.9 | 101 | 106 | 111 | 97.1 | 106 | 104 | 109 | 89.2 | 112 | 99.2 | 100 | 110 | 102 | 94.1 | 103 | 95.2 | 101 | 97.8 | 97.3 | 91.7 | 98.6 | 106 | > 10 | > 10 | > 10 | > 10 | > 10 | 0 | 0 | 0 | 0 | 0
OCc1cc([C@@H](O)CNCCCCCCOCCOCc2c(Cl)cccc2Cl)ccc1O [vilanterol] | 94 | 93.5 | 96 | 96.2 | 94.3 | 99 | 100 | 89.8 | 102 | 97 | 97.8 | 96.5 | 89.5 | 104 | 109 | 96.8 | 96.1 | 101 | 100 | 94 | 95.3 | 99.7 | 89.2 | 98.9 | 107 | > 10 | > 10 | > 10 | > 10 | > 10 | 0 | 0 | 0 | 0 | 0
CC1(CN2CCC(n3c(=O)[nH]c4ccccc43)CC2)OCc2ccccc2-n2cccc21 (stereo not given) [zaldaride] | 99.6 | 91.6 | 101 | 88.1 | 93.1 | 86.3 | 96.1 | 101 | 84.7 | 94.5 | 94.9 | 96.4 | 86.6 | 104 | 76 | 102 | 94.6 | 98 | 95.7 | 99.1 | 98.9 | 97.7 | 98.7 | 100 | 89.9 | > 10 | > 10 | > 10 | > 10 | > 10 | 0 | 0 | 0.7 | 0 | 0
C[C@H](CSC(=O)c1ccccc1)C(=O)N1C[C@@H](Sc2ccccc2)C[C@H]1C(=O)O [zofenopril-calcium] | 86.1 | 94.3 | 106 | 96.6 | 99.6 | 92.9 | 90.7 | 105 | 96 | 88.3 | 101 | 108 | 94.7 | 102 | 95.3 | 98.4 | 102 | 99.6 | 95.1 | 101 | 114 | 99.9 | 103 | 101 | 106 | > 10 | > 10 | > 10 | > 10 | > 10 | 0 | 0.2 | 0 | 0 | 0
Cc1nn(C)c2c1C(c1cccc(Cl)c1)=NCCN2 [zometapine] | 95.7 | 86.7 | 82.4 | 117 | 105 | 102 | 104 | 99.8 | 101 | 98.2 | 93.3 | 105 | 99.9 | 106 | 89 | 95.6 | 105 | 98.4 | 102 | 96.9 | 104 | 105 | 98 | 97.8 | 95.1 | > 10 | > 10 | > 10 | > 10 | > 10 | 0 | 0 | 0 | 0 | 0
